Source: patent publication US20170340584A1 (priority 2014, published 2017)
Where “and” joins values, the source holds several entries; their conditions need not be identical. Equal values may be shown once. Each block holds one compound with its values, some of them ahead of it.

Tests used:
[1] = Body weight and body weight gain of high-fat diet mice; type: in vivo, mice (C57BL/6); settings: for Body weight gain, Mean / Body weight, Mean: sample in drinking water, metformin 250 mg/kg
Method: (§1) Using 8-week-old male mice (C57BL/6) (purchased from CoreTech), anti-diabetic candidate materials were evaluated using a GTT (Glucose Tolerance Test) that is a typical method for diagnosis of diabetes.
(§2) Mice were housed at a temperature of 22±2° C. and a relative humidity of 55-60% with 12-hr light/12-hr dark cycles. Five animals were allotted to each group, and mice from the same mother were grouped into one group, because male mice tend to fight together.
(§3) As feed, high-fat diet (60% of calories from fat; Research Diet Inc., New Brunswick, N.J.) and water were fed ad libitum for 10 weeks. Herein, the water fed contained the samples prepared in Examples 1-2 (3), 2-1, 2-4-1, 2-4-2 and 2-5. As a positive control, metformin (M-072, Sigma) (250 mg/kg) was used, and as a control, the samples prepared in Comparative Examples 1-1, 2-3-2, 2-5-1, 2-5-2 and 2-6 were used.
(§4) For reference, each of the samples prepared in Examples 2-4-1, 2-4-2 and 2-5 was set to the amount to be taken by an adult (60 kg) for 3 days, and the amount was converted into a mouse dose (12-fold/kg, see the US NIH guidance), thereby preparing animal feed. Namely, the amount to be taken by an adult (60 kg) for 3 days is 180-day dose/kg, which corresponds to 15-day dose/kg for mice. Thus, the amount corresponds to 750-day dose/mouse (20 g), because the average weight of mice is about 20 g. Thus, one mouse was allowed to take 1/750 of the prepared sample each day.
(§5) In addition, each of the samples prepared in Examples 1-2 (3) and 2-1 was set to the amount to be taken by an adult (60 kg) for 2 days, and the amount was converted into a mouse dose (12-fold/kg, see the US NIH guidance), thereby preparing animal feed. Namely, the amount to be taken by an adult (60 kg) for 2 days is 120-day dose/kg, which corresponds to 10-day dose/kg for mice. Thus, the amount corresponds to 500-day dose/mouse (20 g), because the average weight of mice is about 20 g. Thus, one mouse was allowed to take 1/500 of the prepared sample each day.
The diet intake and the body weight gain were measured weekly for 8 weeks. The body weight and the diet intake were measured immediately before first drug administration, and then measured at one-week intervals.
(§6) Meanwhile, experimental analysis results were expressed as mean±S.E.M., and the significance between test groups was statistically processed using Student T-TEST, and then the significance was verified at *P<0.05.

[2] = Glucose tolerance test (GTT) in high-fat diet mice; type: in vivo, mice (C57BL/6); settings: for Glucose level (mg/dl), Mean: GTT, high-fat diet mice
Method: as §1, §2, §3, §4, §5
At 8 weeks of high-fat diet feeding, a glucose tolerance test (GTT) was performed. For 8 hours for the test, mice were fasted. Then, blood was sampled from the tail vein, and initial blood glucose levels were measured with a blood glucose meter (AUTO-CHEK, Diatech Korea). Then, glucose was administered intraperitoneally to the mice at a concentration of 1 g/kg, and after 30 min, 60 min, 90 min and 120 min, blood was sampled from the mice, followed by measurement of blood glucose levels (each group consisting of five animals).
as §6

[3] = Blood biochemistry (triglyceride, AST, ALT) in high-fat diet mice; type: in vivo, mice (C57BL/6); settings: blood
Method: as §1, §3
In blood biochemistry, insulin (AKRIN-011T, Shibayagi, Japan), glucose (AM202, Asan Pharmaceutical Co., Ltd., Korea), triglyceride (AM157, Asan Pharmaceutical Co., Ltd.), total cholesterol (AM202, Asan Pharmaceutical Co., Ltd.), AST and ALT (Asan Pharmaceutical Co., Ltd.) were analyzed using enzymatic assay kits.
At 10 weeks of high-fat diet feeding, the mice were sacrificed by cervical dislocation to obtain serum. For histological examination, the liver, white adipose tissue (WAT), brown adipose tissue (BAT) and kidney were fixed with formalin (50-00-0, Junsei, Japan), and the remaining organs were stored at −70° C. The blood sampled from the heart was coagulated to obtain serum which was then stored at −70° C.
as §6

plasma [4] = test: Anticoagulant activity: prothrombin time (PT); type: biochemical, human; settings: 20 μl sample + 80 μl plasma, test material g/dL (Asp 7.5 mg/Ml)
Method: (§7) Antithrombotic (anticoagulant) activity was evaluated according to a previously reported method. Each of thromborel S, actin and thrombin, which are reagents for Sysmex CA-1500 for analysis of PT, aPTT and TT, was mounted in Sysmex CA-1500 (Siemens Healthcare, Germany) which is an automated blood coagulation test device. According to the automated procedure of the test device, clotting time (sec) (prothrombin time (PT), activated partial thromboplastin time (aPTT) and thrombin time (TT)) was measured. A sufficient amount of a sample for each of the three analyses was about 400 uL of an 80:20 mixture of plasma and a test substance.
(§8) The isolated plasma was used in an experiment in a fresh state within 5-6 hours.
(§9) In this experiment, for the relative comparison of the measured clotting time (sec) (PT, aPTT and TT) between test groups, clotting time prolongation (%) relative to triple distilled water (purified water) that is a normal control test sample was statistically analyzed. For statistical analysis, the […] anticoagulant activities of test materials were comparatively analyzed using SPSS IBM version 21.0 by one-way ANOVA at p<0.05, and significance comparison between groups was performed by Duncan's test.
(§10) The aspirin solution was immediately used at room temperature in a light-shielded state or was cold-stored.
(§11) As a control, aspirin was used, and as a vehicle control, triple distilled water (purified water) was used instead of the sample.

plasma [5] = test: Anticoagulant activity: activated partial thromboplastin time (aPTT); type: biochemical, human; settings: 20 μl sample + 80 μl plasma, test material g/dL (Asp 7.5 mg/Ml)
Method: as §7, §8, §9, §10, §11

plasma [6] = test: Anticoagulant activity: thrombin time (TT); type: biochemical, human; settings: 20 μl sample + 80 μl plasma, test material g/dL (Asp 7.5 mg/Ml)
Method: as §7, §8, §9, §10, §11

[7] = Scanning electron microscope (SEM) analysis, particle size; type: physicochemical
Source text: For reference, an analysis instrument and analysis conditions are as follows. (1) Analysis instrument: HITACHI (S-2700), Japan (2) Electron gun: Tungsten filament type (3) Resolution: 4.0 nm (4) Accelerating voltage: 15.0 kV.

[8] = Thermogravimetric analysis (TGA); type: physicochemical; settings: first-order differentiation of TGA; N2, 20° C./min
Method: For reference, an analysis instrument and analysis conditions are as follows. (1) Analysis instrument: TGA 7 (Perkin-Elmer) (2) Atmosphere: N2 gas (3) Heating rate: 20° C./min (4) Range: 50 to 600° C.

Structure (SMILES): CN(C)C(=N)N=C(N)N [Metformin, metformin]
Body weight (g), Mean ([1]; 1 week): 23.550 g and 25.094 g | Body weight gain, Mean ([1]; 1 week): 1.70 g | Body weight, Mean ([1]; 1 week): 21.00 g | Body weight (g), Mean ([1]; 2 weeks): 23.608 g and 26.344 g | Body weight gain (g), Mean ([1]; 2 weeks): 2.503 g and 2.406 g | Body weight gain, Mean ([1]; 2 weeks): 3.48 g | Body weight, Mean ([1]; 2 weeks): 22.78 g | Body weight (g), Mean ([1]; 3 weeks): 25.125 g and 27.430 g | Body weight gain (g), Mean ([1]; 3 weeks): 4.020 g and 3.492 g | Body weight gain, Mean ([1]; 3 weeks): 4.54 g | Body weight, Mean ([1]; 3 weeks): 23.84 g | Body weight (g), Mean ([1]; 4 weeks): 25.705 g and 27.708 g | Body weight gain (g), Mean ([1]; 4 weeks): 4.600 g and 3.770 g | Body weight gain, Mean ([1]; 4 weeks): 5.88 g | Body weight, Mean ([1]; 4 weeks): 25.18 g | Body weight (g), Mean ([1]; 5 weeks): 27.198 g and 28.572 g | Body weight gain (g), Mean ([1]; 5 weeks): 6.093 g and 4.634 g | Body weight gain, Mean ([1]; 5 weeks): 6.42 g | Body weight, Mean ([1]; 5 weeks): 25.72 g | Body weight (g), Mean ([1]; 6 weeks): 28.355 g and 28.772 g | Body weight gain (g), Mean ([1]; 6 weeks): 7.250 g and 4.834 g | Body weight gain, Mean ([1]; 6 weeks): 7.04 g | Body weight, Mean ([1]; 6 weeks): 26.34 g | Body weight (g), Mean ([1]; 7 weeks): 27.368 g and 28.468 g | Body weight gain (g), Mean ([1]; 7 weeks): 6.263 g and 4.530 g | Body weight gain, Mean ([1]; 7 weeks): 8.22 g | Body weight, Mean ([1]; 7 weeks): 27.52 g | Body weight (g), Mean ([1]; 8 weeks): 29.343 g and 27.608 g | Body weight gain, Mean ([1]; 8 weeks): 8.90 g | Body weight, Mean ([1]; 8 weeks): 28.20 g | Body weight (g), Mean ([1]; before administration): 21.105 g and 23.938 g | Body weight, Mean ([1]; before administration): 19.30 g | Glucose level (mg/dl), Mean ([2]; 0 min): 144.20 mg/dL and 104.40 mg/dL | Glucose level (mg/dl), Mean ([2]; 30 min): 386.40 mg/dL and 438.40 mg/dL | Glucose level (mg/dl), Mean ([2]; 60 min): 301.40 mg/dL and 296.40 mg/dL | Glucose level (mg/dl), Mean ([2]; 90 min): 194.40 mg/dL and 178.00 mg/dL | Glucose level (mg/dl), Mean ([2]; 120 min): 135.20 mg/dL and 146.20 mg/dL | Triglyceride level (mg/dl), Mean [3]: 62.99 mg/dL

Structure (SMILES): CC(=O)Oc1ccccc1C(=O)O [Asp, aspirin]
PT, clotting time prolongation relative to purified water, Mean (plasma [4]; Table 2): 9.90% | PT, clotting time prolongation relative to purified water, Mean (plasma [4]; Table 3): 17.51% | PT, clotting time prolongation relative to purified water, Mean (plasma [4]; Table 4): 26.02% | aPTT, clotting time prolongation relative to purified water, Mean (plasma [5]; Table 2): 7.31% | aPTT, clotting time prolongation relative to purified water, Mean (plasma [5]; Table 3): 16.28% | aPTT, clotting time prolongation relative to purified water, Mean (plasma [5]; Table 4): 29.82% | TT, clotting time prolongation relative to purified water, Mean (plasma [6]; Table 2): 13.59% | *TT, clotting time prolongation relative to purified water, Mean (plasma [6]; Table 3, values excluding one sample showing an extreme value): 20.96% | TT, clotting time prolongation relative to purified water, Mean (plasma [6]; Table 4): 23.95%

Structure (SMILES): O=C(CO)[C@@H](O)[C@H](O)[C@H](O)CO [Fruc 6.2, fructose]
PT, clotting time prolongation relative to purified water, Mean (plasma [4]; Table 4): 0.54% | aPTT, clotting time prolongation relative to purified water, Mean (plasma [5]; Table 4): −0.20% | TT, clotting time prolongation relative to purified water, Mean (plasma [6]; Table 4): 13.19%

Structure (SMILES): O=C(CO)[C@@H](O)[C@H](O)[C@H](O)CO [Fruc 12.4, fructose]
PT, clotting time prolongation relative to purified water, Mean (plasma [4]; Table 4): 0.54% | aPTT, clotting time prolongation relative to purified water, Mean (plasma [5]; Table 4): 0.58% | TT, clotting time prolongation relative to purified water, Mean (plasma [6]; Table 4): 30.07%

Average particle size [7]: 222.06 μm | Median particle size [7]: 192.92 μm | Final decomposition temperature [8]: 394 °C | First decomposition temperature [8]: 362 °C
Structure (SMILES): NCCS(=O)(=O)O [DT19, taurine]
Body weight gain, Mean ([1]; 1 week): 2.20 g | Body weight, Mean ([1]; 1 week): 21.46 g | Body weight gain, Mean ([1]; 2 weeks): 4.36 g | Body weight, Mean ([1]; 2 weeks): 23.62 g | Body weight gain, Mean ([1]; 3 weeks): 5.34 g | Body weight, Mean ([1]; 3 weeks): 24.60 g | Body weight gain, Mean ([1]; 4 weeks): 6.52 g | Body weight, Mean ([1]; 4 weeks): 25.78 g | Body weight gain, Mean ([1]; 5 weeks): 8.12 g | Body weight, Mean ([1]; 5 weeks): 27.38 g | Body weight gain, Mean ([1]; 6 weeks): 7.94 g | Body weight, Mean ([1]; 6 weeks): 27.20 g | Body weight gain, Mean ([1]; 7 weeks): 8.80 g | Body weight, Mean ([1]; 7 weeks): 28.06 g | Body weight, Mean ([1]; 8 weeks): 28.78 g | Body weight, Mean ([1]; before administration): 19.26 g | Glucose level (mg/dl), Mean ([2]; 0 min): 111.80 mg/dL | Glucose level (mg/dl), Mean ([2]; 30 min): 298.00 mg/dL | Glucose level (mg/dl), Mean ([2]; 60 min): 295.60 mg/dL | Glucose level (mg/dl), Mean ([2]; 90 min): 189.40 mg/dL | Glucose level (mg/dl), Mean ([2]; 120 min): 119.00 mg/dL | Fasting glucose level ([2]; at 8 weeks of high-fat diet feeding, 8 hours fasted): lower than that of the mice administered with high-fat diet (HFD), and were similar to the blood glucose levels of normal mice | Glucose control ability in GTT ([2]; at 8 weeks of high-fat diet feeding, glucose 1 g/kg intraperitoneally, 30-120 min): significantly higher than that of the group administered with HFD alone | ALT level (IU/L), Mean [3]: 25.47 IU/L | AST level (IU/L), Mean [3]: 118.63 IU/L | Triglyceride level (mg/dl), Mean [3]: 116.20 mg/dL
